From article PMC5059489, “Mechanistic evaluation and transcriptional signature of a glutathione S-transferase omega 1 inhibitor” (Nature Communications, 2016)
Where two headings read alike, the source gives them in different places. Values belong to the molecule of their own block, whether it stands above or below them.

Columns and labels:
Panc-1 = assay: MTT cytotoxicity GI50, Panc-1; format: cell-based
Method: (§1) Cell proliferation was assessed by a MTT assay. Cancer cells were seeded in 96-well microtitre plates and, after overnight attachment, treated with GSTO1 inhibitors. After 72 h, MTT solution (3 mg ml^−1; 20 μl) was added to each well and cells were incubated for 3 h at 37 °C. After incubation, media from each well was removed and the dark blue formazan crystals formed by live cells were dissolved in DMSO (150 μl per well). The absorbance intensity was measured at 570 nm on a microplate reader (Molecular Devices, Sunnyvale, CA, USA). Cell viability after 24 h treatment was assessed using ApoTox-Glo triplex assay (Promega) according to the manufacturer's protocol. At least three independent dose–response experiments with each concentration tested in triplicate were performed for each cell line.

BxPC3 = assay: MTT cytotoxicity GI50, BxPC3; format: cell-based
Method: as §1

HT29 = assay: MTT cytotoxicity GI50, HT29; format: cell-based
Method: as §1

HCT116 = assay: MTT cytotoxicity GI50, HCT116; format: cell-based, human
Method: as §1

A549 = assay: MTT cytotoxicity GI50, A549; format: cell-based
Method: as §1

H1299 = assay: MTT cytotoxicity GI50, H1299; format: cell-based
Method: as §1

NCIADR Res = assay: MTT cytotoxicity GI50, NCI-ADR/Res; format: cell-based
Source text: Colon cancer cell line HCT116 was generously provided by Dr Bert Vogelstein, Johns Hopkins Medical Institutions, Baltimore, MD. Pancreatic cancer cell line Panc-1 was obtained from Dr Alan Epstein, University of Southern California. All other cell lines were purchased from the American Type Culture Collection (Manassas, VA). MDA-MB-435 cell line was used in the GSTO1 knockdown experiment as it had high GSTO1 expression (Supplementary Fig. 17). We also tested active compounds in NCI-ADR/Res cell line since GSTO1 is implicated in drug resistance. Cell lines were cultured in RPMI 1640 or […] supplemented with 10% fetal bovine serum at 37 °C in a humidified atmosphere of 5% CO2. All cell lines were maintained in culture under 30 passages and tested regularly for Mycoplasma contamination using PlasmoTest (InvivoGen, San Diego, CA, USA).
as §1

GSTO1 [1] = target: T1, GSTO1 (Homo sapiens, UniProt P78417); assay: Duration of inhibition (washout, CMFDA labelling of GSTO1 in HCT116 cells); details: 2 h treatment
T1 sequence (P78417 1-241): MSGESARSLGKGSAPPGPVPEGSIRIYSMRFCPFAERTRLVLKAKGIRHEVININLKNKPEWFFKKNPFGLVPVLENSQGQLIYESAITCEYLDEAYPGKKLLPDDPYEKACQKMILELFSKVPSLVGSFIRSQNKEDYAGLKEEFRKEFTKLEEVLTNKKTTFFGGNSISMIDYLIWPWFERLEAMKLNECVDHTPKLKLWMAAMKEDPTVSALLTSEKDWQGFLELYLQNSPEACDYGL
Method: At indicated times after washout, CMFDA (500 nM) was added for 1 h and the cells were lysed and processed for in-gel fluorescence binding assay, to assess recovery of CMFDA binding to GSTO1.

PDI = PDI (Homo sapiens, UniProt P07237); assay: PDI activity assay (PDI-catalysed reduction of insulin); format: biochemical; parameters: made in house; details: for Fold selectivity: GSTO1 versus PDI enzyme inhibition; for IC50: inhibition of PDI-catalyzed reduction of insulin
Sequence of PDI (P07237 18-508, species assumed): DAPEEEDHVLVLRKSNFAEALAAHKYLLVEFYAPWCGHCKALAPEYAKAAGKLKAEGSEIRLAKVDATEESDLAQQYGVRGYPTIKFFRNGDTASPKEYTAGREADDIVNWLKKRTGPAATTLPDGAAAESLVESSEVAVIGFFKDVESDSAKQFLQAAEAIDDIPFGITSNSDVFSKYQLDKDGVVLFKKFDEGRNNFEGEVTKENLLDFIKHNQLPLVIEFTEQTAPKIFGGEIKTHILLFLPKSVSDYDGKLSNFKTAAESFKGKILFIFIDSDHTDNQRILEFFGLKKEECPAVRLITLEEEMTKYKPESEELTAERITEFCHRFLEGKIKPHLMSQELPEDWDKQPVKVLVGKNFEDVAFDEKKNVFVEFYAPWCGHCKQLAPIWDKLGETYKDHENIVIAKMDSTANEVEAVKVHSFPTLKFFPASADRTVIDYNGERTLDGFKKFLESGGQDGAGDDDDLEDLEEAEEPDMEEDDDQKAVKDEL
Method: The reduction reaction was catalysed by PDI at room temperature, and the resulting aggregation of reduced insulin B chains was measured at 620 nm. % PDI activity was calculated from absorbance values at T=0 and 80 min.

H460 = assay: MTT cytotoxicity GI50, H460; format: cell-based
Method: as §1

endogenous GSTO1 = target: T2, endogenous GSTO1 (Homo sapiens, UniProt P78417); assay: In-gel fluorescence competitive CMFDA binding assay, endogenous GSTO1 in HCT116
T2 sequence (P78417 1-241): T1 sequence (P78417 1-241)
Source text: (§2) Primary screening of GSTO inhibitors was based on competitive inhibition of CMFDA binding to endogenous GSTO. Briefly, HCT116^p53+/+ cells (4 × 10^4 per well) were coated in a 12-well plate. […] Cells were then washed with PBS and lysed using Cell Lytic M buffer (Sigma). […] Gels were immediately scanned on a Typhoon variable mode imager (Amersham Bioscience). Quantification of fluorescent band intensity was done using Image Quant 5.2 software.

GSTO1 [2] = target: T1, GSTO1; assay: Pre-incubation and dilution assay; format: biochemical; parameters: inferred from pQE30 vector and Ni-NTA purification; made in house; host or cells: Escherichia coli M15 (Rep4); details: for mode of GSTO1 enzyme inhibition: pre-incubation and dilution
Method: 4-NPG (20 μl, 0.5 mM) was added and decrease in absorbance was monitored. % Recovery of enzyme activity was determined using a DMSO control.

GSTO1 [3] = target: T1, GSTO1; assay: GSTO1 substrate assay (reduction of 4-NPG)
Method: For activity screening, we adapted a GSTO1 substrate assay that relies on the quantification of the reduction of S-(4-nitrophenacyl)glutathione (4-NPG), a GSTO1-specific substrate[17], using recombinant human GSTO1 in a high-throughput screening format.
Enzyme activity was measured by monitoring the reduction of 4-NPG to 4-nitroacetophenone by GSTO1.

HCT116p53+/+ cell = assay: MTT cell proliferation at single concentration; format: cell-based, human
Method in brief: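 Cancer cells attached overnight, exposed to GSTO1 inhibitors for 72 h, then MTT added for 3 h at 37 °C; formazan dissolved in DMSO, absorbance read at 570 nm. At least three independent dose–response experiments, triplicate per concentration.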

GSTO1 [4] = target: T1, GSTO1; assay: In-gel fluorescence competitive CMFDA binding assay, recombinant GSTO1; details: inhibition of CMFDA binding
Source text: as §2

Compound: CCOc1ccccc1-n1c(C(C)N2CCN(C(=O)COc3ccc(Cl)cc3)CC2)nc2ccccc2c1=O (centres unmarked) [Erastin]
GI50 (Panc-1; Homo sapiens, PANC-1): 0.5 ± 0.2 µM
GI50 (BxPC3; Homo sapiens, BXPC-3): > 50 µM
GI50 (HT29; Homo sapiens, HT-29): 42.8 ± 3.8 µM
GI50 (HCT116; Homo sapiens, HCT-116): 15.9 ± 0.7 µM
GI50 (A549; Homo sapiens): > 50 µM
GI50 (H1299; Homo sapiens, NCI-H1299): 1.2 µM

duration of inhibition of CMFDA labelling of GSTO1 after washout (GSTO1 [1]): up to 24 h
Fold selectivity (PDI): 1.9
IC50 (PDI): 6.04 ± 0.62 µM
IC50 (endogenous GSTO1): 3.9 µM
mode of GSTO1 enzyme inhibition (GSTO1 [2]): irreversible
recovery of GSTO1 enzyme activity after pre-incubation and dilution (GSTO1 [2]; pre-incubation then 40-fold dilution): not recovered
IC50 (GSTO1 [3]; GSTO1 Substrate assay IC50, mean ± SEM, at least 3 independent experiments): 3.14 ± 0.27 µM
IC50 (GSTO1 [3]; Substrate assay IC50, pilot screening): 3.1 µM
melting point: 142 to 143 °C
Compound: O=C(CCl)Nc1cc(F)c(F)cc1NC(=O)CCl [4a]
GI50 (NCIADR Res; Homo sapiens, NCI/ADR-RES): 2.2 µM
GI50 (H460; Homo sapiens, NCI-H460): 3.5 µM
GI50 (HT29; Homo sapiens, HT-29): 5.6 ± 0.5 µM
GI50 (HCT116; Homo sapiens, HCT-116): 2.4 ± 0.2 µM

Compound: COc1cc(/C=C/C(=O)N2CCC=CC2=O)cc(OC)c1OC [Piperlongumine]
GI50 (Panc-1; Panc-1): 4.9 ± 0.8 µM
GI50 (BxPC3): 6.8 ± 1.4 µM
GI50 (HT29): 5.1 ± 0.5 µM
GI50 (HCT116): 2.6 ± 0.2 µM
GI50 (A549): 16.9 µM
GI50 (H1299; H1299): 2.9 µM

Fold selectivity (PDI): 19.5
IC50 (PDI): 1.25 ± 0.23 µM
GSTO binding assay (% Inhibition at 10 µM) Recombinant (GSTO1 [4]): 71.5%
GSTO binding assay (% Inhibition at 10 µM) Endogenous (endogenous GSTO1; 10 µM, inhibition of CMFDA binding, HCT116): 57.2%
IC50 (endogenous GSTO1; read-out: Competitive Binding assay Endogenous GSTO1 IC50): 0.008 µM
mode of GSTO1 enzyme inhibition (GSTO1 [2]): slow-turnover substrate
GSTO substrate assay % Inhibition at 10 µM (GSTO1 [3]; 10 µM): 87.6%
IC50 (GSTO1 [3]; read-out: GSTO substrate assay IC50, cluster screening tables): 0.064 µM
Compound: CN(c1ccccc1)S(=O)(=O)c1cccc(NC(=O)CCl)c1 [C1-28]
GI50 (NCIADR Res): 3.8 µM
% Inhibition of HCT116p53+/+ cell proliferation at 10 µM (HCT116p53+/+ cell): 94.4%
GI50 (H460; H460): 4.5 µM
GI50 (HT29): 2.7 ± 0.5 µM
GI50 (HCT116): 2.2 ± 0.7 µM
